Laboratory results published in patent publication US9108944B2, “Androgen receptor modulators and uses thereof” (ARAGON PHARMACEUTICALS, INC., priority 2010, dated 2015).

Columns and labels:
AR-VP16 [1] = biological target: T1, AR-VP16 (Homo sapiens, UniProt P10275); assay: AR-VP16 DNA Binding Assay, antagonist mode (HepG2 cells, 0.1 nM R1881); assay type: cell-based
T1 sequence (P10275 560-920 limits assumed): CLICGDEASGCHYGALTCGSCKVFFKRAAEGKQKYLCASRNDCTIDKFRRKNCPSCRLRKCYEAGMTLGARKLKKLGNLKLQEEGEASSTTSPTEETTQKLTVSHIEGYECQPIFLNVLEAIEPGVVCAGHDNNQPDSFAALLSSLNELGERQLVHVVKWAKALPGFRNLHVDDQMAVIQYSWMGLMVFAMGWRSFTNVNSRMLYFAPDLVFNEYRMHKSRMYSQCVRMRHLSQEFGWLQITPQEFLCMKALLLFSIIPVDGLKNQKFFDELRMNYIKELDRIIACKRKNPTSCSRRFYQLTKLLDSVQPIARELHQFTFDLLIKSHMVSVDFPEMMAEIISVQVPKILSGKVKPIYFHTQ
Method in brief: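 Transfected HepG2 cells expressing AR-VP16 received serially diluted compound in charcoal-stripped-serum RPMI the day after transfection, with 0.1 nM R1881 (final) added only for antagonist testing. After 48 h, cells were lysed for measurement.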

AR-VP16 [2] = biological target: T1, AR-VP16; assay: AR-VP16 DNA Binding Assay, agonist mode (HepG2 cells); assay type: cell-based; conditions: Emax >20x DMSO control = agonist

CCCCNC(=O)c1ccc(N2C(=S)N(c3cnc(C#N)c(C(F)(F)F)c3)C(=O)C23CCC3)cc1F [Compound 277, N-Butyl-4-(7-(6-cyano-5-(trifluoromethyl)pyridin-3-yl)-8-oxo-6-thioxo-5,7-diazaspiro[3.4]octan-5-yl)-2-fluorobenzamide]
IC50 (AR-VP16 [1]): < 1 µM
ARVP16 DNA Binding Assay (Agonist mode): Agonist? (AR-VP16 [2]): No (Agonist defined as a compound whose Emax in the ARVP16 DNA Binding Assay (Agonist mode) is >20x DMSO control)

Cc1cc(N2C(=O)C3(CCC3)N(c3ccc(C(=O)NCCCN4CCCC4)c(F)c3)C2=S)cnc1C#N [Compound 275, 4-(7-(6-Cyano-5-methylpyridin-3-yl)-8-oxo-6-thioxo-5,7-diazaspiro[3.4]octan-5-yl)-2-fluoro-N-(3-(pyrrolidin-1-yl)propyl)benzamide]
IC50 (AR-VP16 [1]): > 1 µM
ARVP16 DNA Binding Assay (Agonist mode): Agonist? (AR-VP16 [2]): No (Agonist defined as a compound whose Emax in the ARVP16 DNA Binding Assay (Agonist mode) is >20x DMSO control)

Cc1ccccc1N1C(=S)N(c2cnc(C#N)c(C(F)(F)F)c2)C(=O)C12CCC2 [Compound 20, 5-(8-Oxo-6-thioxo-5-(o-tolyl)-5,7-diazaspiro[3.4]octan-7-yl)-3-(trifluoromethyl)picolinonitrile]
IC50 (AR-VP16 [1]): < 1 µM
ARVP16 DNA Binding Assay (Agonist mode): Agonist? (AR-VP16 [2]): No (Agonist defined as a compound whose Emax in the ARVP16 DNA Binding Assay (Agonist mode) is >20x DMSO control)

N#Cc1ncc(N2C(=O)C3(CCC3)N(c3ccc(C(=O)Nc4ccccc4)c(F)c3)C2=S)cc1C(F)(F)F [Compound 255, 4-(7-(6-Cyano-5-(trifluoromethyl)pyridin-3-yl)-8-oxo-6-thioxo-5,7-diazaspiro[3.4]octan-5-yl)-2-fluoro-N-phenylbenzamide]
IC50 (AR-VP16 [1]): < 1 µM
ARVP16 DNA Binding Assay (Agonist mode): Agonist? (AR-VP16 [2]): No (Agonist defined as a compound whose Emax in the ARVP16 DNA Binding Assay (Agonist mode) is >20x DMSO control)

N#Cc1ncc(N2C(=O)C3(CCC3)N(c3ccc(C(=O)N4CCOCC4)c(F)c3)C2=S)cc1C(F)(F)F [Compound 271, 5-(5-(3-Fluoro-4-(morpholine-4-carbonyl)phenyl)-8-oxo-6-thioxo-5,7-diazaspiro[3.4]octan-7-yl)-3-(trifluoromethyl)picolinonitrile]
IC50 (AR-VP16 [1]): > 1 µM
ARVP16 DNA Binding Assay (Agonist mode): Agonist? (AR-VP16 [2]): No (Agonist defined as a compound whose Emax in the ARVP16 DNA Binding Assay (Agonist mode) is >20x DMSO control)

Cc1cc(N2C(=O)C3(CCC3)N(c3ccc(OC4CCN(CCO)CC4)cc3)C2=S)cnc1C#N [Compound 217, 5-(5-(4-((1-(2-Hydroxyethyl)piperidin-4-yl)oxy)phenyl)-8-oxo-6-thioxo-5,7-diazaspiro[3.4]octan-7-yl)-3-methylpicolinonitrile]
IC50 (AR-VP16 [1]): < 1 µM
ARVP16 DNA Binding Assay (Agonist mode): Agonist? (AR-VP16 [2]): No (Agonist defined as a compound whose Emax in the ARVP16 DNA Binding Assay (Agonist mode) is >20x DMSO control)

N#Cc1ncc(N2C(=O)C3(CCC3)N(c3ccc(F)c(OCCc4ccncc4)c3)C2=S)cc1C(F)(F)F [Compound 160, 5-(5-(4-Fluoro-3-(2-(pyridin-4-yl)ethoxy)phenyl)-8-oxo-6-thioxo-5,7-diazaspiro[3.4]octan-7-yl)-3-(trifluoromethyl)picolinonitrile]
IC50 (AR-VP16 [1]): > 1 µM
ARVP16 DNA Binding Assay (Agonist mode): Agonist? (AR-VP16 [2]): No (Agonist defined as a compound whose Emax in the ARVP16 DNA Binding Assay (Agonist mode) is >20x DMSO control)

CCOC(=O)N1CCC(Oc2ccc(N3C(=S)N(c4cnc(C#N)c(C(F)(F)F)c4)C(=O)C34CCC4)cc2)CC1 [Compound 214, ethyl 4-(4-(7-(6-cyano-5-(trifluoromethyl)pyridin-3-yl)-8-oxo-6-thioxo-5,7-diazaspiro[3.4]octan-5-yl)phenoxy)piperidine-1-carboxylate]
IC50 (AR-VP16 [1]): < 1 µM
ARVP16 DNA Binding Assay (Agonist mode): Agonist? (AR-VP16 [2]): Yes (Agonist defined as a compound whose Emax in the ARVP16 DNA Binding Assay (Agonist mode) is >20x DMSO control)

Cc1cc(N2C(=O)C3(CCC3)N(c3ccc(OCCO)cc3)C2=S)cnc1C#N [Compound 223, 5-(5-(4-(2-Hydroxyethoxy)phenyl)-8-oxo-6-thioxo-5,7-diazaspiro[3.4]octan-7-yl)-3-methylpicolinonitrile]
IC50 (AR-VP16 [1]): < 1 µM
ARVP16 DNA Binding Assay (Agonist mode): Agonist? (AR-VP16 [2]): No (Agonist defined as a compound whose Emax in the ARVP16 DNA Binding Assay (Agonist mode) is >20x DMSO control)

N#Cc1ncc(N2C(=O)C3(CCC3)N(c3ccc(F)cc3O)C2=S)cc1C(F)(F)F [Compound 38, 5-(5-(4-Fluoro-2-hydroxyphenyl)-8-oxo-6-thioxo-5,7-diazaspiro[3.4]octan-7-yl)-3-(trifluoromethyl)picolinonitrile]
IC50 (AR-VP16 [1]): > 1 µM
ARVP16 DNA Binding Assay (Agonist mode): Agonist? (AR-VP16 [2]): No (Agonist defined as a compound whose Emax in the ARVP16 DNA Binding Assay (Agonist mode) is >20x DMSO control)

N#Cc1ncc(N2C(=O)C3(CCC3)N(c3ccc(C(=O)NCCCN4CCC(F)(F)C4)c(F)c3)C2=S)cc1C(F)(F)F [Compound 313, 4-(7-(6-Cyano-5-(trifluoromethyl)pyridin-3-yl)-8-oxo-6-thioxo-5,7-diazaspiro[3.4]octan-5-yl)-N-(3-(3,3-difluoropyrrolidin-1-yl)propyl)-2-fluorobenzamide]
IC50 (AR-VP16 [1]): < 1 µM
ARVP16 DNA Binding Assay (Agonist mode): Agonist? (AR-VP16 [2]): No (Agonist defined as a compound whose Emax in the ARVP16 DNA Binding Assay (Agonist mode) is >20x DMSO control)

N#Cc1ncc(N2C(=O)C3(CCC3)N(c3ccc(F)c(O)c3)C2=S)cc1C(F)(F)F [Compound 123, 5-(5-(4-Fluoro-3-hydroxyphenyl)-8-oxo-6-thioxo-5,7-diazaspiro[3.4]octan-7-yl)-3-(trifluoromethyl)picolinonitrile]
IC50 (AR-VP16 [1]): > 1 µM
ARVP16 DNA Binding Assay (Agonist mode): Agonist? (AR-VP16 [2]): No (Agonist defined as a compound whose Emax in the ARVP16 DNA Binding Assay (Agonist mode) is >20x DMSO control)

CNC(=O)c1ccc(N2C(=S)N(c3cnc(C#N)c(C)c3)C(=O)C23CCCC3)cc1F [Compound 6, 4-(3-(6-Cyano-5-methylpyridin-3-yl)-4-oxo-2-thioxo-1,3-diazaspiro[4.4]nonan-1-yl)-2-fluoro-N-methylbenzamide]
IC50 (AR-VP16 [1]): < 1 µM
ARVP16 DNA Binding Assay (Agonist mode): Agonist? (AR-VP16 [2]): No (Agonist defined as a compound whose Emax in the ARVP16 DNA Binding Assay (Agonist mode) is >20x DMSO control)

CCOC(=O)CNC(=O)c1ccc(N2C(=S)N(c3cnc(C#N)c(C(F)(F)F)c3)C(=O)C23CCC3)cc1F [Compound 245, Ethyl 2-(4-(7-(6-cyano-5-(trifluoromethyl)pyridin-3-yl)-8-oxo-6-thioxo-5,7-diazaspiro[3.4]octan-5-yl)-2-fluorobenzamido)acetate]
IC50 (AR-VP16 [1]): > 1 µM
ARVP16 DNA Binding Assay (Agonist mode): Agonist? (AR-VP16 [2]): No (Agonist defined as a compound whose Emax in the ARVP16 DNA Binding Assay (Agonist mode) is >20x DMSO control)

N#Cc1ncc(N2C(=O)C3(CCC3)N(c3ccc(C(=O)Nc4ccncc4)c(F)c3)C2=S)cc1C(F)(F)F [Compound 263, 4-(7-(6-Cyano-5-(trifluoromethyl)pyridin-3-yl)-8-oxo-6-thioxo-5,7-diazaspiro[3.4]octan-5-yl)-2-fluoro-N-(pyridin-4-yl)benzamide]
IC50 (AR-VP16 [1]): < 1 µM
ARVP16 DNA Binding Assay (Agonist mode): Agonist? (AR-VP16 [2]): Yes (Agonist defined as a compound whose Emax in the ARVP16 DNA Binding Assay (Agonist mode) is >20x DMSO control)

COc1cc(N2C(=O)C3(CCC3)N(c3ccc(C)cc3)C2=S)cnc1C#N [Compound 59, 3-Methoxy-5-(8-oxo-6-thioxo-5-(p-tolyl)-5,7-diazaspiro[3.4]octan-7-yl)picolinonitrile]
IC50 (AR-VP16 [1]): < 1 µM
ARVP16 DNA Binding Assay (Agonist mode): Agonist? (AR-VP16 [2]): No (Agonist defined as a compound whose Emax in the ARVP16 DNA Binding Assay (Agonist mode) is >20x DMSO control)
